Where no end group is shown, it is not given here.
Assays:
rat ligated ileal loops = conditions: in vivo
[1] = tested on: goat hyperimmune antiserum to synthetic ST; conditions: in vivo
[2] = tested on: hyperimmune antisera to synthetic ST; type: binding, goat and rabbit
[3] = tested on: hyperimmune rabbit antiserum to biologic ST; conditions: in vivo
[4] = tested on: rabbit ligated ileal loops; conditions: in vivo
suckling mouse = conditions: in vivo
[5] = tested on: hyperimmune antisera to biologic ST; type: binding, goat and rabbit
[6] = in vivo, po

Sequence: NTFYCCELCCYPACAGCN (cysteine pairing not given here) [synthetic ST]
- ED50 in rat ligated ileal loops (rat ligated ileal loops): 2.0 nanograms
- secretory responses in ligated ileal loops compared with biologic ST (rat ligated ileal loops): Substantial identity of secretory responses
- mouse units of toxin neutralized by one milliliter of goat hyperimmune antiserum to synthetic ST [1]: 220 MU
- Anti-Syn. ST: percent recognition of assayed ST by antiserum raised to synthetic ST [2]: 100
- antigenicity compared with biologic ST [2]: identical
- mouse units of toxin neutralized by one milliliter of hyperimmune rabbit antiserum to biologic ST [3]: 160 MU
- fluid secretion in rabbit ligated ileal loops [4]: did not cause any fluid secretion
- fluid:length ratio in rabbit ligated ileal loops [4]: 1.1±0.3
- Nanograms required to provide a gut: whole body ratio of 0.083 (suckling mouse): 5.3 ng
- Suckling Mouse (Percent) (suckling mouse): 120
- biological activity / potency in suckling mouse assay compared with biologic (E. coli) ST (suckling mouse): substantially the same as biologic ST
- mouse units of ST activity per microgram (suckling mouse): 175 mouse units per microgram
- reduction of ST toxicity by the cross-linking reaction to B subunit (suckling mouse): 727 fold
- secretory activity in the suckling mouse assay after dithiothreitol (suckling mouse): abolished its secretory activity
- value for one mouse unit (suckling mouse): 5.7 nanograms
- Anti-Biol.-ST: percent recognition of assayed ST by antiserum raised to biologic ST [5]: 263
- antigenicity relative to biologic ST Ib, later preparations [5]: about 3 fold
- diarrhea after p.o. administration [6]: did not cause diarrhea

— patent publication US4886663A (priority 1983, dated 1989)
